These results are taken from BindingDB's records for doi:10.1021/jm9708341 (University of Leipzig, 1998).

For this test, the target named is T1, Neutrophil elastase (Homo sapiens, UniProt P08246).
T1 sequence (P08246 whole entry): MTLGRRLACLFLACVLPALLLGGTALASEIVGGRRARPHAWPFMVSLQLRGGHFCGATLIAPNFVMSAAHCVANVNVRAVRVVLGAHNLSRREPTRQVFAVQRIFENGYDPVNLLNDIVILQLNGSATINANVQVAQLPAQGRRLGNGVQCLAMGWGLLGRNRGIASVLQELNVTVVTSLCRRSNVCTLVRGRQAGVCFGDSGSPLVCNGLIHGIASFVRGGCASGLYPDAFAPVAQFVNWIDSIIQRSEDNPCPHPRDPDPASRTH
The test can be described thus: Steady state inhibition constant for Human Leukocyte Elastase inhibition. The note with it: for kon: read-out: kon (M-1-s-1).

The koff is the first-order rate constant of dissociation. High values mean a short-lived complex, low ones a long-lived complex. For orientation: kon means a measure of how fast the partners come together. Consider `Cc1sc2nc(NC(C)C)oc(=O)c2c1C` [2-Isopropylamino-5,6-dimethyl-thieno[2,3-d][1,3]oxazin-4-one], for which the koff came to 8.5e-05 s⁻¹ and the kon is 1130 M⁻¹ s⁻¹.
On the same counts, the results for `CSc1nc2sc3c(c2c(=O)o1)CCCC3` [2-Methylsulfanyl-5,6,7,8-tetrahydro-benzo[4,5]thieno[2,3-d][1,3]oxazin-4-one] are 0.00156 s⁻¹ and 272000 M⁻¹ s⁻¹.
On the same counts, the results for `COC(=O)CSc1nc2sc(C)c(C)c2c(=O)o1` [(5,6-Dimethyl-4-oxo-4H-thieno[2,3-d][1,3]oxazin-2-ylsulfanyl)-acetic acid methyl ester] are 0.000163 s⁻¹ and 685 M⁻¹ s⁻¹.
